PubChem BioAssay (NCI)
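Test compounds were applied to cells in 96-well plates for 48 hours at 5 doses. GI50 = concentration required for 50% inhibition of growth. TGI is the concentration that stops growth completely.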

Experiments:
Assay in all cases: growth of human tumour cells (NCI), 48 h
RXF 393 renal = system: RXF 393 renal
K-562 leukemia = system: K-562 leukemia
M14 melanoma = system: M14 melanoma
T-47D breast = system: T-47D breast
HOP-62 NSCLC = system: HOP-62 NSCLC
DU-145 prostate = system: DU-145 prostate
HCT-15 colon = system: HCT-15 colon
SNB-19 CNS = system: SNB-19 CNS
NCI/ADR-RES ovarian = system: NCI/ADR-RES ovarian
OVCAR-4 ovarian = system: OVCAR-4 ovarian
786-0 renal = system: 786-0 renal
OVCAR-8 ovarian = system: OVCAR-8 ovarian
MCF7 breast = system: MCF7 breast
U251 CNS = system: U251 CNS
SF-539 CNS = system: SF-539 CNS
HS 578T breast = system: HS 578T breast
MALME-3M melanoma = system: MALME-3M melanoma
HT29 colon = system: HT29 colon
SK-MEL-5 melanoma = system: SK-MEL-5 melanoma
SK-MEL-2 melanoma = system: SK-MEL-2 melanoma
COLO 205 colon = system: COLO 205 colon
ACHN renal = system: ACHN renal
NCI-H23 lung = system: NCI-H23 lung
MOLT-4 leukemia = system: MOLT-4 leukemia
SR leukemia = system: SR leukemia
NCI-H460 lung = system: NCI-H460 lung
PC-3 prostate = system: PC-3 prostate
UACC-257 melanoma = system: UACC-257 melanoma
UACC-62 melanoma = system: UACC-62 melanoma
NCI-H226 lung = system: NCI-H226 lung
NCI-H522 lung = system: NCI-H522 lung
OVCAR-3 ovarian = system: OVCAR-3 ovarian
EKVX NSCLC = system: EKVX NSCLC
UO-31 renal = system: UO-31 renal
A549 NSCLC = system: A549 NSCLC
IGROV1 ovarian = system: IGROV1 ovarian
SK-MEL-28 melanoma = system: SK-MEL-28 melanoma
SNB-75 CNS = system: SNB-75 CNS
BT-549 breast = system: BT-549 breast
HOP-92 NSCLC = system: HOP-92 NSCLC
OVCAR-5 ovarian = system: OVCAR-5 ovarian
SF-268 CNS = system: SF-268 CNS
CCRF-CEM leukemia = system: CCRF-CEM leukemia
HCT-116 colon = system: HCT-116 colon
TK-10 renal = system: TK-10 renal
RPMI-8226 leukemia = system: RPMI-8226 leukemia
MDA-MB-231 breast = system: MDA-MB-231 breast
SF-295 CNS = system: SF-295 CNS
HCC-2998 colon = system: HCC-2998 colon
SN12C renal = system: SN12C renal
MDA-MB-435 = system: MDA-MB-435
SK-OV-3 ovarian = system: SK-OV-3 ovarian
LOX IMVI melanoma = system: LOX IMVI melanoma
KM12 colon = system: KM12 colon
SW-620 colon = system: SW-620 colon
A498 renal = system: A498 renal
CAKI-1 renal = system: CAKI-1 renal

## CCOc1cc(C(C)(C)C)ccc1C1=N[C@H](c2ccc(Cl)cc2)[C@H](c2ccc(Cl)cc2)N1C(=O)N1CCN(CC#Cc2cccc3c2CN([C@@H]2CCC(=O)NC2=O)C3=O)CC1
RXF 393 renal
  GI50: 2120 nM
  TGI: > 51600 nM
K-562 leukemia
  GI50: 2660 nM
  TGI: > 100000 nM
M14 melanoma
  GI50: 1460 nM
  TGI: > 47300 nM
T-47D breast
  GI50: 43.1 nM
  TGI: 12900 nM
HOP-62 NSCLC
  GI50: 115 nM
  TGI: 16300 nM
DU-145 prostate
  GI50: 4870 nM
  TGI: > 100000 nM
HCT-15 colon
  GI50: 301 nM
  TGI: > 53500 nM
SNB-19 CNS
  GI50: 2100 nM
  TGI: > 58800 nM
NCI/ADR-RES ovarian
  GI50: 1790 nM
  TGI: > 100000 nM
OVCAR-4 ovarian
  GI50: 101 nM
  TGI: > 100000 nM
786-0 renal
  GI50: 1320 nM
  TGI: 42800 nM
OVCAR-8 ovarian
  GI50: 157 nM
  TGI: > 31800 nM
MCF7 breast
  GI50: 71.2 nM
  TGI: > 100000 nM
U251 CNS
  GI50: 5470 nM
  TGI: > 47000 nM
SF-539 CNS
  GI50: 4490 nM
  TGI: > 100000 nM
HS 578T breast
  GI50: 346 nM
  TGI: > 100000 nM
MALME-3M melanoma
  GI50: 33.1 nM
  TGI: 778 nM
HT29 colon
  GI50: 2410 nM
  TGI: > 34800 nM
SK-MEL-5 melanoma
  GI50: 868 nM
  TGI: 2200 nM
SK-MEL-2 melanoma
  GI50: 2980 nM
  TGI: 13600 nM
COLO 205 colon
  GI50: 472 nM
ACHN renal
  GI50: 1240 nM
  TGI: 12400 nM
NCI-H23 lung
  GI50: 8140 nM
  TGI: > 100000 nM
MOLT-4 leukemia
  GI50: 19 nM
  TGI: > 100000 nM
SR leukemia
  GI50: 642 nM
  TGI: > 100000 nM
NCI-H460 lung
  GI50: 2380 nM
  TGI: 11700 nM
PC-3 prostate
  GI50: 85 nM
  TGI: 18400 nM
UACC-257 melanoma
  GI50: 1850 nM
  TGI: 14800 nM
UACC-62 melanoma
  GI50: 673 nM
  TGI: 14700 nM
NCI-H226 lung
  GI50: 112 nM
  TGI: 4330 nM
NCI-H522 lung
  GI50: 6590 nM
  TGI: > 77300 nM
OVCAR-3 ovarian
  GI50: 2810 nM
  TGI: 15900 nM
EKVX NSCLC
  GI50: 3980 nM
  TGI: > 100000 nM
UO-31 renal
  GI50: 236 nM
  TGI: 2000 nM
A549 NSCLC
  GI50: 1100 nM
  TGI: > 43100 nM
IGROV1 ovarian
  GI50: 165 nM
  TGI: > 33500 nM
SK-MEL-28 melanoma
  GI50: 3290 nM
  TGI: > 100000 nM
SNB-75 CNS
  GI50: 100 nM
  TGI: > 43200 nM
BT-549 breast
  GI50: 317 nM
  TGI: 19800 nM
HOP-92 NSCLC
  GI50: 37.2 nM
  TGI: 8510 nM
OVCAR-5 ovarian
  GI50: 4500 nM
  TGI: > 54300 nM
SF-268 CNS
  GI50: 1200 nM
  TGI: > 100000 nM
CCRF-CEM leukemia
  GI50: 23 nM
  TGI: > 100000 nM
HCT-116 colon
  GI50: 1970 nM
  TGI: > 36300 nM
TK-10 renal
  GI50: 2410 nM
  TGI: 44000 nM
RPMI-8226 leukemia
  GI50: 2300 nM
  TGI: > 100000 nM
MDA-MB-231 breast
  GI50: 19.2 nM
  TGI: 79.7 nM
SF-295 CNS
  GI50: 2530 nM
  TGI: 19200 nM
HCC-2998 colon
  GI50: 905 nM
  TGI: > 100000 nM
SN12C renal
  GI50: 1310 nM
  TGI: > 100000 nM
MDA-MB-435
  GI50: 2750 nM
  TGI: > 53800 nM
SK-OV-3 ovarian
  GI50: 6950 nM
  TGI: > 88900 nM
LOX IMVI melanoma
  GI50: 2050 nM
  TGI: 22700 nM
KM12 colon
  GI50: 2220 nM
  TGI: > 100000 nM
SW-620 colon
  GI50: 143 nM
  TGI: > 100000 nM
A498 renal
  GI50: 197 nM
  TGI: 6620 nM
CAKI-1 renal
  GI50: 215 nM
  TGI: 9590 nM
